Laboratory results published in ChEMBL document CHEMBL2169877, “Antagonists of 5-HT₆ receptors. Substituted 3-(phenylsulfonyl)pyrazolo[1,5-a]pyrido[3,4-e]pyrimidines and 3-(phenylsulfonyl)pyrazolo[1,5-a]pyrido[4,3-d]pyrimidines-Synthesis and 'structure-activity' relationship” (Bioorg Med Chem Lett, 2012).
Active and inactive are the calls of the source. The calls are words filed in the database; no cut-off is given here.

How the values were obtained:
[1] = molecular target: Amine oxidase [flavin-containing] A (Homo sapiens, UniProt P21397); assay: Binding affinity to MAO-A at 1 uM by radioligand displacement assay
[2] = molecular target: cAMP and cAMP-inhibited cGMP 3',5'-cyclic phosphodiesterase 10A (Homo sapiens) (UniProt Q9Y233); assay: Binding affinity to PDE10A1 at 1 uM by radioligand displacement assay
[3] = Binding affinity to GABA transporter at 1 uM by radioligand displacement assay
[4] = molecular target: Muscarinic acetylcholine receptor M2 (Homo sapiens) (UniProt P08172); assay: Binding affinity to M2 receptor at 1 uM by radioligand displacement assay
[5] = molecular target: RAC-alpha serine/threonine-protein kinase (Homo sapiens) (UniProt P31749); assay: Binding affinity to AKT1 at 1 uM by radioligand displacement assay
[6] = Binding affinity to central-type GABA(A) receptor flunitrazepam binding site at 1 uM by radioligand displacement assay
[7] = molecular target: Alpha-1A adrenergic receptor (Homo sapiens) (UniProt P35348); assay: Binding affinity to alpha1A adrenergic receptor at 1 uM by radioligand displacement assay
Alpha-1A adrenergic receptor (Homo sapiens), sequence (P35348 whole entry): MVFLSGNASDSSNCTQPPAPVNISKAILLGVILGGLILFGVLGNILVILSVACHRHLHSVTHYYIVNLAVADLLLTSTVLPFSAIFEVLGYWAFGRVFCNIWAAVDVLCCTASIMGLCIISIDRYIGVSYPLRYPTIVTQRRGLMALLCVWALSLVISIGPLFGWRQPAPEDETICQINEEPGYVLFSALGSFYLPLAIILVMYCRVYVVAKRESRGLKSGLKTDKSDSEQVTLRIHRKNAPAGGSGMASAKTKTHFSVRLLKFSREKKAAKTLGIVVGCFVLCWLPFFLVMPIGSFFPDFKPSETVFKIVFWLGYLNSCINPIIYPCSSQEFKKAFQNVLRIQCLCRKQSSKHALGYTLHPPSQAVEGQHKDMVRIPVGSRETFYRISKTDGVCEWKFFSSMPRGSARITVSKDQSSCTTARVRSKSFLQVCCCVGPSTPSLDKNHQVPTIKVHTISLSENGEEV

[8] = Binding affinity to glycine transporter at 1 uM by radioligand displacement assay
[9] = molecular target: 5-hydroxytryptamine receptor 4 (Homo sapiens) (UniProt Q13639); assay: Binding affinity to 5HT4 receptor at 1 uM by radioligand displacement assay
[10] = molecular target: 5-hydroxytryptamine receptor 3A (Homo sapiens) (UniProt P46098); assay: Binding affinity to 5HT3 receptor at 1 uM by radioligand displacement assay
[11] = molecular target: Cyclin-dependent kinase 2/cyclin A (Homo sapiens) (UniProt P24941+P20248+P78396); assay: Binding affinity to CDK2/cyclin A at 1 uM by radioligand displacement assay; format: protein-complex assay
[12] = molecular target: Cyclin-dependent kinase 1/cyclin B1 (Homo sapiens) (UniProt P06493+P14635); assay: Binding affinity to CDK1/cyclin B at 1 uM by radioligand displacement assay; format: protein-complex assay
[13] = molecular target: Sodium-dependent dopamine transporter (Homo sapiens) (UniProt Q01959); assay: Binding affinity to DAT at 1 uM by radioligand displacement assay
[14] = Binding affinity to N-type calcium channel at 1 uM by radioligand displacement assay
[15] = molecular target: 5-hydroxytryptamine receptor 1A (Homo sapiens) (UniProt P08908); assay: Binding affinity to 5HT1A receptor at 1 uM by radioligand displacement assay
[16] = molecular target: D(2) dopamine receptor (Homo sapiens) (UniProt P14416); assay: Binding affinity to dopamine D2S receptor at 1 uM by radioligand displacement assay
D(2) dopamine receptor (Homo sapiens), sequence (P14416 whole entry): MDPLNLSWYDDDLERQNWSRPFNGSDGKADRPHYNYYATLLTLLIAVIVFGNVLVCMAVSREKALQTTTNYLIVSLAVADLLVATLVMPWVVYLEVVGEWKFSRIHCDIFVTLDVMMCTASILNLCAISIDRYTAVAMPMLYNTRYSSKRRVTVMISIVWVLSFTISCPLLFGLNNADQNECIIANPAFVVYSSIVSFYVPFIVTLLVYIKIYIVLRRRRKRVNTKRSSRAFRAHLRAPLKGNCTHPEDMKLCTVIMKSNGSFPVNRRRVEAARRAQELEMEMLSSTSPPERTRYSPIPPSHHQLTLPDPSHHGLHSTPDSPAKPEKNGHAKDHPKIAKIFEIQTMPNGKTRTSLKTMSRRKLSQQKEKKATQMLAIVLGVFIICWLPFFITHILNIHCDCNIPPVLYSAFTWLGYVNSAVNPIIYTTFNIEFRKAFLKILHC

[17] = molecular target: Cyclin-dependent kinase 5/CDK5 activator 1 (Homo sapiens) (UniProt Q00535+Q15078); assay: Binding affinity to cdk5/p35 at 1 uM by radioligand displacement assay; format: protein-complex assay
[18] = molecular target: Corticotropin-releasing factor receptor 1 (Homo sapiens) (UniProt P34998); assay: Binding affinity to CRF1R at 1 uM by radioligand displacement assay
[19] = molecular target: T1, 5-hydroxytryptamine receptor 2B (Homo sapiens, UniProt P41595); assay: Displacement of [3H]lysergic acid diethylamide from human recombinant 5HT2B receptor at 1 uM
T1 sequence (P41595 whole entry): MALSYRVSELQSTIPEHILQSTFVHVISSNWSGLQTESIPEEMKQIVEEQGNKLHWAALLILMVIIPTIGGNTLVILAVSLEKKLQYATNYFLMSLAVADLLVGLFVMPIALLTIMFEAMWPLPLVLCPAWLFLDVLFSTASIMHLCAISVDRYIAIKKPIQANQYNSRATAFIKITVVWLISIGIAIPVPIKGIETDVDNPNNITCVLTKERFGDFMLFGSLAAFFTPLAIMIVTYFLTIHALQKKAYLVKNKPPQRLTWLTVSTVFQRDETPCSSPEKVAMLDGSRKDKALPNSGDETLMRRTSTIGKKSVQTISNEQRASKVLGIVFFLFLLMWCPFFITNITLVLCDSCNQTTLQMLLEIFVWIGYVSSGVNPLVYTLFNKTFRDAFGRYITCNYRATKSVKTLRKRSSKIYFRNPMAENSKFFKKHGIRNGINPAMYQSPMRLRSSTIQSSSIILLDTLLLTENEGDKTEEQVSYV

[20] = molecular target: Histamine H2 receptor (Homo sapiens) (UniProt P25021); assay: Binding affinity to histamine receptor H2 at 1 uM by radioligand displacement assay
[21] = molecular target: Adenosine receptor A1 (Homo sapiens) (UniProt P30542); assay: Binding affinity to adenosine A1 receptor at 1 uM by radioligand displacement assay
[22] = molecular target: Cannabinoid receptor 2 (Homo sapiens) (UniProt P34972); assay: Binding affinity to CB2 receptor at 1 uM by radioligand displacement assay
[23] = Binding affinity to GABA-B receptor at 1 uM by radioligand displacement assay
[24] = molecular target: D(2) dopamine receptor (Homo sapiens) (UniProt P14416); assay: Binding affinity to dopamine D2L receptor at 1 uM by radioligand displacement assay
[25] = Binding affinity to L-type calcium channel phenylalkylamine binding site at 1 uM by radioligand displacement assay
[26] = Binding affinity to peripheral benzodiazepine receptor at 1 uM by radioligand displacement assay
[27] = molecular target: Beta-2 adrenergic receptor (Homo sapiens) (UniProt P07550); assay: Binding affinity to beta2 adrenergic receptor at 1 uM by radioligand displacement assay
[28] = molecular target: Nitric oxide synthase 1 (Homo sapiens) (UniProt P29475); assay: Binding affinity to nNOS at 1 uM by radioligand displacement assay
Nitric oxide synthase 1 (Homo sapiens), sequence (P29475 whole entry): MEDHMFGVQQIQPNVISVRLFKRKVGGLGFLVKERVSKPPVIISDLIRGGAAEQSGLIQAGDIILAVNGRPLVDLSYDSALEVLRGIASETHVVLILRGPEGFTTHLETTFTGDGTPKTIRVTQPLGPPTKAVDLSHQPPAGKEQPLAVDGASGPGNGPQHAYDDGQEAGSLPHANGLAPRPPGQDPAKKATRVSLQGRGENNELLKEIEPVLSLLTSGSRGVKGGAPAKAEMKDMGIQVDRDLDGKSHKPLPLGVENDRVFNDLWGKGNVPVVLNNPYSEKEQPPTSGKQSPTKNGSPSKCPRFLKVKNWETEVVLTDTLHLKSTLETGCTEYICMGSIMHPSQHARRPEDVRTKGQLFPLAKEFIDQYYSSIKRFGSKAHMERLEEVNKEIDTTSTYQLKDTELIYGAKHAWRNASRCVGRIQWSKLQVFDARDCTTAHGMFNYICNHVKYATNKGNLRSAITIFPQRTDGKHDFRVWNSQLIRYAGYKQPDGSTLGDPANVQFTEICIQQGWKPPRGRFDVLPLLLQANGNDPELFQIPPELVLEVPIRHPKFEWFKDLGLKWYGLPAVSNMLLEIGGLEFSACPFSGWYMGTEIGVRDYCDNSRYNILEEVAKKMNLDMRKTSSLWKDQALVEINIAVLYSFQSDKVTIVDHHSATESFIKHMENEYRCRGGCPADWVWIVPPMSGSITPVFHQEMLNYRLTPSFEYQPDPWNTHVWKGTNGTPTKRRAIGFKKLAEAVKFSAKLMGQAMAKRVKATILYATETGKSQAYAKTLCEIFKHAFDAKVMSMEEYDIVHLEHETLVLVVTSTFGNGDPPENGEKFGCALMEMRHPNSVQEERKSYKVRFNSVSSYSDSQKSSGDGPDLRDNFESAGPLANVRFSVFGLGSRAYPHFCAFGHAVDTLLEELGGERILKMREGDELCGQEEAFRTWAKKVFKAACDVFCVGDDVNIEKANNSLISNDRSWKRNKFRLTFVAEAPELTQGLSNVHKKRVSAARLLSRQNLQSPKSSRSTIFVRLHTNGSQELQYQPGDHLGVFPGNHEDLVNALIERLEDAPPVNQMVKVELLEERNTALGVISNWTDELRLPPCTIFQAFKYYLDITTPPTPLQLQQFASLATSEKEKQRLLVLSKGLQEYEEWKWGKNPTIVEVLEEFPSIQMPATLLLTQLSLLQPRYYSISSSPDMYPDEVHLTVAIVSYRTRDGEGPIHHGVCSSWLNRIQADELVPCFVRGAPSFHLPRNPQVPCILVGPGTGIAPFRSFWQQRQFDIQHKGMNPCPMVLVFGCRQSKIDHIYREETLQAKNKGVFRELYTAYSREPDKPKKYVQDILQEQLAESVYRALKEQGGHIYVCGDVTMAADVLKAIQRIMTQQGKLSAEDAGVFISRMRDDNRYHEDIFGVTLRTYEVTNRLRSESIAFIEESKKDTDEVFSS

[29] = molecular target: Sodium-dependent serotonin transporter (Homo sapiens) (UniProt P31645); assay: Binding affinity to serotonin transporter at 1 uM by radioligand displacement assay
[30] = molecular target: Glycogen synthase kinase-3 beta (Homo sapiens) (UniProt P49841); assay: Binding affinity to GSK3beta at 1 uM by radioligand displacement assay
[31] = Binding affinity to L-type calcium channel benzothiazepine binding site at 1 uM by radioligand displacement assay
[32] = molecular target: D(3) dopamine receptor (Homo sapiens) (UniProt P35462); assay: Binding affinity to dopamine D3 receptor at 1 uM by radioligand displacement assay
[33] = molecular target: Alpha-2A adrenergic receptor (Homo sapiens) (UniProt P08913); assay: Binding affinity to alpha2A adrenergic receptor at 1 uM by radioligand displacement assay
[34] = molecular target: Muscarinic acetylcholine receptor M1 (Homo sapiens) (UniProt P11229); assay: Binding affinity to M1 receptor at 1 uM by radioligand displacement assay
Muscarinic acetylcholine receptor M1 (Homo sapiens), sequence (P11229 whole entry): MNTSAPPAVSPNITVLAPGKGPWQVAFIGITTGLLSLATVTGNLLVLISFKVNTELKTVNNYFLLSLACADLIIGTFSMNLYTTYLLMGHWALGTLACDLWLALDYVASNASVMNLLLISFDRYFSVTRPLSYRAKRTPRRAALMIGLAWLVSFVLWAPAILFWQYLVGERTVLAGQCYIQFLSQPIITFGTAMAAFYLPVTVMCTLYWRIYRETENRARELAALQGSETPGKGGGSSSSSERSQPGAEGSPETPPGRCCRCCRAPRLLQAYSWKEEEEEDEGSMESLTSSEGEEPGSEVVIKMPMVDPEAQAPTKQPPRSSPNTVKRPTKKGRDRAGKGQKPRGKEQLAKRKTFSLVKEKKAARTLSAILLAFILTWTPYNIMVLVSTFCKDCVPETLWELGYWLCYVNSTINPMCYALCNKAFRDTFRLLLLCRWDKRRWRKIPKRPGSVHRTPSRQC

[35] = Binding affinity to choline transporter at 1 uM by radioligand displacement assay
[36] = Binding affinity to PDE3 at 1 uM by radioligand displacement assay
[37] = molecular target: T1, 5-hydroxytryptamine receptor 2B; assay: Antagonist activity at human recombinant 5HT2B receptor expressed in HEK293 cells assessed as inhibition of alphamethyl5HT-induced intracellular calcium mobilization by Fluo4-based staining method; format: functional, cell-based
[38] = Binding affinity to PKC at 1 uM by radioligand displacement assay
[39] = molecular target: Alpha-2B adrenergic receptor (Homo sapiens) (UniProt P18089); assay: Binding affinity to alpha2B adrenergic receptor at 1 uM by radioligand displacement assay
[40] = molecular target: Nitric oxide synthase, inducible (Homo sapiens) (UniProt P35228); assay: Binding affinity to iNOS at 1 uM by radioligand displacement assay
[41] = molecular target: 5-hydroxytryptamine receptor 5A (Homo sapiens) (UniProt P47898); assay: Binding affinity to 5HT5 receptor at 1 uM by radioligand displacement assay
[42] = Binding affinity to P2X receptor at 1 uM by radioligand displacement assay
[43] = Binding affinity to adenosine transporter at 1 uM by radioligand displacement assay
[44] = Binding affinity to GABA(A) receptor RO-15-1788 binding site at 1 uM by radioligand displacement assay
[45] = Binding affinity to P2Y receptor at 1 uM by radioligand displacement assay
[46] = molecular target: 5-hydroxytryptamine receptor 2C (Homo sapiens) (UniProt P28335); assay: Binding affinity to 5HT2C receptor at 1 uM by radioligand displacement assay
[47] = molecular target: Cannabinoid receptor 1 (Homo sapiens) (UniProt P21554); assay: Binding affinity to CB1 receptor at 1 uM by radioligand displacement assay
[48] = Binding affinity to Glutamate receptor at 1 uM by radioligand displacement assay
[49] = molecular target: T2, 5-hydroxytryptamine receptor 6 (Homo sapiens, UniProt P50406); assay: Displacement of [3H]lysergic acid diethylamide from human recombinant 5HT6 receptor expressed in HeLa cells after 120 mins; format: cell-based
T2 sequence (P50406 whole entry): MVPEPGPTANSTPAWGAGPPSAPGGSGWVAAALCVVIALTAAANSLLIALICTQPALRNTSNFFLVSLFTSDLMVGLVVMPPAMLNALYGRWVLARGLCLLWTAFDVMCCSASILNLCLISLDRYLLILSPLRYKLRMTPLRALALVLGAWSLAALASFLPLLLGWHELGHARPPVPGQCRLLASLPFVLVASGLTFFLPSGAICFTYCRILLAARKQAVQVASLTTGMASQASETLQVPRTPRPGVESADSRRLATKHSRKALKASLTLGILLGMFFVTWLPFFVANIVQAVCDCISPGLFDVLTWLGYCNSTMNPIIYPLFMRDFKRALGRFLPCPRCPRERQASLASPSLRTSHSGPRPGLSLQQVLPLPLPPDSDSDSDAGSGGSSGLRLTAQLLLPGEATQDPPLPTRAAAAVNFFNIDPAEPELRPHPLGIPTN

[50] = molecular target: Alpha-1B adrenergic receptor (Homo sapiens) (UniProt P35368); assay: Binding affinity to alpha1B adrenergic receptor at 1 uM by radioligand displacement assay
[51] = Binding affinity to PDE2 at 1 uM by radioligand displacement assay
[52] = molecular target: Metabotropic glutamate receptor 5 (Homo sapiens) (UniProt P41594); assay: Binding affinity to mGluR5 at 1 uM by radioligand displacement assay
[53] = molecular target: Histamine H3 receptor (Homo sapiens) (UniProt Q9Y5N1); assay: Binding affinity to histamine receptor H3 at 1 uM by radioligand displacement assay
[54] = molecular target: Beta-1 adrenergic receptor (Homo sapiens) (UniProt P08588); assay: Binding affinity to beta1 adrenergic receptor at 1 uM by radioligand displacement assay
Beta-1 adrenergic receptor (Homo sapiens), sequence (P08588 whole entry, looked up): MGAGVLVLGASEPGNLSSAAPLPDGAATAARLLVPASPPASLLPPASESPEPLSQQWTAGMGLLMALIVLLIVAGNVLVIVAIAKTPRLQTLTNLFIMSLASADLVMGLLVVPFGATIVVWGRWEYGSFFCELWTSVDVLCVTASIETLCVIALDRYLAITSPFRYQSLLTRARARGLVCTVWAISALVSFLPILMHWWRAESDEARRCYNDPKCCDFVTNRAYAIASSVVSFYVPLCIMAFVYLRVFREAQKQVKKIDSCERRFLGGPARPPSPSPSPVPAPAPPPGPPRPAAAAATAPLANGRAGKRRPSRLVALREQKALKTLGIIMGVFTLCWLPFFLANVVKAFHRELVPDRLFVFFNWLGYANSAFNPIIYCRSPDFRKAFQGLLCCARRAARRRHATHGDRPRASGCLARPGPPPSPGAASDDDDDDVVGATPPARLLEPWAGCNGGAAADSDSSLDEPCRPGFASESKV

[55] = molecular target: T2, 5-hydroxytryptamine receptor 6; assay: Antagonist activity at human recombinant 5HT6 receptor expressed in […] cells assessed as inhibition of serotonin-induced cAMP accumulation after 2 hrs; format: functional, cell-based, HEK293
[56] = Binding affinity to PDE4 at 1 uM by radioligand displacement assay
[57] = Binding affinity to PDE5 at 1 uM by radioligand displacement assay
[58] = Binding affinity to GABA(A) receptor TBOB binding site at 1 uM by radioligand displacement assay
[59] = molecular target: Amine oxidase [flavin-containing] B (Homo sapiens, UniProt P27338); assay: Binding affinity to MAO-B at 1 uM by radioligand displacement assay
[60] = molecular target: Histamine H1 receptor (Homo sapiens) (UniProt P35367); assay: Binding affinity to histamine receptor H1 at 1 uM by radioligand displacement assay
Histamine H1 receptor (Homo sapiens), sequence (P35367 whole entry): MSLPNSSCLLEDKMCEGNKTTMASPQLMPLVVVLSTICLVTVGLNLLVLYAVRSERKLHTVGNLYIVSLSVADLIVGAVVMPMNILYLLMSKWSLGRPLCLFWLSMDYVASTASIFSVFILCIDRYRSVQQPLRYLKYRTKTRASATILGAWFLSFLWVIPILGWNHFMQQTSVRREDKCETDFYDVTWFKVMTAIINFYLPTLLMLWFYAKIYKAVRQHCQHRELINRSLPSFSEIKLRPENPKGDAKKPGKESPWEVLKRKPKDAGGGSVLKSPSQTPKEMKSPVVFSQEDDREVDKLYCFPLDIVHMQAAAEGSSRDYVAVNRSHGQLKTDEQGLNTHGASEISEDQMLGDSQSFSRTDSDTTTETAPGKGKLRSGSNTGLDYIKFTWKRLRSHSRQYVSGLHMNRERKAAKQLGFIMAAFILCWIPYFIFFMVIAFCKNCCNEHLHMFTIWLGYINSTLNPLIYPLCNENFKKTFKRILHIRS

[61] = molecular target: Sodium-dependent noradrenaline transporter (Homo sapiens) (UniProt P23975); assay: Binding affinity to NET at 1 uM by radioligand displacement assay
[62] = molecular target: Adenosine receptor A3 (Homo sapiens) (UniProt P0DMS8); assay: Binding affinity to adenosine A3 receptor at 1 uM by radioligand displacement assay
Adenosine receptor A3 (Homo sapiens), sequence (P0DMS8 whole entry): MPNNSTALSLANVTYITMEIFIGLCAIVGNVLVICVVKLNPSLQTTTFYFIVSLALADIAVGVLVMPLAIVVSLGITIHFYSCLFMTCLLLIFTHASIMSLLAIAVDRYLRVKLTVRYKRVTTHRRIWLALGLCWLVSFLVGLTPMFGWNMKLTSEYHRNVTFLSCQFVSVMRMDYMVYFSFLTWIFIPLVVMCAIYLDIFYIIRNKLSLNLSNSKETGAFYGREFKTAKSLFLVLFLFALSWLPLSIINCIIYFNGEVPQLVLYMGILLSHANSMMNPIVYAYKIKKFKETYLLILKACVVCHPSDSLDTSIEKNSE

[63] = molecular target: Acetylcholinesterase (Homo sapiens) (UniProt P22303); assay: Binding affinity to AChE at 1 uM by radioligand displacement assay
[64] = Binding affinity to GABA(A) receptor TBOP binding site at 1 uM by radioligand displacement assay
[65] = Binding affinity to PDE1 at 1 uM by radioligand displacement assay
[66] = molecular target: 5-hydroxytryptamine receptor 1B (Homo sapiens) (UniProt P28222); assay: Binding affinity to 5HT1B receptor at 1 uM by radioligand displacement assay
[67] = molecular target: D(1A) dopamine receptor (Homo sapiens) (UniProt P21728); assay: Binding affinity to dopamine D1 receptor at 1 uM by radioligand displacement assay
[68] = Binding affinity to sodium channel site 2 at 1 uM by radioligand displacement assay
[69] = molecular target: Adenosine receptor A2a (Homo sapiens) (UniProt P29274); assay: Binding affinity to adenosine A2A receptor at 1 uM by radioligand displacement assay
[70] = Binding affinity to central-type GABA(A) receptor muscimol binding site at 1 uM by radioligand displacement assay
[71] = molecular target: T1, 5-hydroxytryptamine receptor 2B; assay: Agonist activity at human recombinant 5HT2B receptor expressed in HEK293 cells assessed as increase in intracellular calcium mobilization by Fluo4-based staining method; format: functional, cell-based
[72] = molecular target: Voltage-gated inwardly rectifying potassium channel KCNH2 (Homo sapiens, UniProt Q12809); assay: Inhibition of human recombinant ERG channel expressed in […] cells after 3 to 8 mins by voltage clamp assay; format: cell-based

CNc1nn2cc3c(nc2c1S(=O)(=O)c1ccccc1)CCN(C)C3
Activity [1]: Not Active
Activity [2]: inactive
Activity [3]: inactive
Activity [4]: inactive
Activity [5]: inactive
Activity [6]: inactive
Activity [7]: inactive
Activity [8]: inactive
Activity [9]: inactive
Activity [10]: inactive
Activity [11]: inactive
Activity [12]: inactive
Activity [13]: inactive
Activity [14]: inactive
Activity [15]: inactive
Activity [16]: inactive
Activity [17]: inactive
Activity [18]: inactive
Activity [19]: inactive
Activity [20]: inactive
Activity [21]: inactive
Activity [22]: inactive
Activity [23]: inactive
Activity [24]: inactive
Activity [25]: inactive
Activity [26]: inactive
Activity [27]: inactive
Activity [28]: inactive
Activity [29]: inactive
Activity [30]: inactive
Activity [31]: inactive
Activity [32]: inactive
Activity [33]: inactive
Activity [34]: inactive
Activity [35]: inactive
Activity [36]: inactive
IC50 ([37]; hek293): Not Active
Activity [38]: inactive
Activity [39]: inactive
Activity [40]: inactive
Activity [41]: inactive
Activity [42]: inactive
Activity [43]: inactive
Activity [44]: inactive
Activity [45]: inactive
Activity [46]: inactive
Activity [47]: inactive
Activity [48]: inactive
Ki [49]: 0.82 nM
Activity [50]: inactive
Activity [51]: inactive
Activity [52]: inactive
Activity [53]: inactive
Activity [54]: inactive
Ki [55]: 14.3 nM
Activity [56]: inactive
Activity [57]: inactive
Activity [58]: inactive
Activity [59]: Not Active
Activity [60]: inactive
Activity [61]: inactive
Activity [62]: inactive
Activity [63]: inactive
Activity [64]: inactive
Activity [65]: inactive
Activity [66]: inactive
Activity [67]: inactive
Activity [68]: inactive
Activity [69]: inactive
Activity [70]: inactive

Cc1nn2c3c(cnc2c1S(=O)(=O)c1ccccc1)CN(C)CC3
Ki [49]: 60.4 nM

CNc1nn2c3c(cnc2c1S(=O)(=O)c1ccccc1)CN(C)CC3
Activity [71]: inactive
Activity [19]: 50%
inhibition [37]: Dose-dependent effect
IC50 ([37]; read-out: IC50): 6160 nM
Ki [49]: 0.39 nM
Ki [55]: 1.8 nM
IC50 [72]: 54200 nM

CNc1nn2cc3c(nc2c1S(=O)(=O)c1ccccc1)CCNC3
Ki [55]: 2.1 nM

CSc1nn2cc3c(nc2c1S(=O)(=O)c1ccccc1)CCN(C)C3
Ki [55]: 492 nM

Cc1nn2cc3c(nc2c1S(=O)(=O)c1ccccc1)CCN(C)C3
Ki [49]: > 10000 nM

CSc1nn2c3c(cnc2c1S(=O)(=O)c1ccccc1)CN(C)CC3
Ki [49]: 7.7 nM
Ki [55]: 14.8 nM

CSc1nn2c3c(cnc2c1S(=O)(=O)c1ccc(F)cc1)CN(C)CC3
Ki [49]: 35.7 nM

CNc1nn2c3c(cnc2c1S(=O)(=O)c1ccccc1)CNCC3
Ki [55]: 1.9 nM

CSc1nn2cc3c(nc2c1S(=O)(=O)c1ccc(F)cc1)CCN(C)C3
Ki [55]: 1160 nM
